# Test results taken from patent publication US8859018B2, “Delivery carrier for antimicrobial essential oils” (Nestec S.A., priority 2010, dated 2014).
# Experiments:
# Test in all cases: Challenge test with moulds in MOS / MAS; as to Week 1 (Log cfu/g): key: VG: growth; NVG: no growth; as to Week 2 (Log cfu/g): key: VG: growth; NVG: no growth; as to Week 3 (Log cfu/g): key: VG: growth; NVG: no growth; as to Week 4 (Log cfu/g): key: VG: growth; NVG: no growth
# Format in all cases: cell-based
# Settings in all cases: for Week 0 (Log cfu/g) / Week 1 (Log cfu/g) / Week 2 (Log cfu/g) / Week 3 (Log cfu/g) / Week 4 (Log cfu/g): 0.10%; for mould growth: KS 0.10%
# [1] = test system: Aspergillus niger (mould); as to Week 1 (Log cfu/g): key: VG: growth; NVG: no growth; as to Week 2 (Log cfu/g): key: VG: growth; NVG: no growth; as to Week 3 (Log cfu/g): key: VG: growth; NVG: no growth; as to Week 4 (Log cfu/g): key: VG: growth; NVG: no growth
# Protocol: (§1) Target microorganisms used for the challenge tests (CT) were Zygosaccharomyces bailii (yeast), Aspergillus niger (mould), Penicillium nalgiovense (mould) and Eurotium amstelodami (mould).
# (§2) Stock culture of the mould (mould spores suspended in Tryptone Salt 0.1% diluent) was revived on RBA plates by doing a 3-point inoculation. The inoculated RBA plates were incubated at 30° C. for 36 hours or until the colonies sporulated. The spores were then aseptically sub-cultured onto PDA plates for mass harvesting of the spores. The inoculated PDA plates were then incubated for 30° C. for 36 hours or until the colonies sporulated. Then, the spores were aseptically harvested with a sterile cotton swabs and suspended in sterile Tryptone Salt 0.1% diluent. The suspensions were analyzed for mould spore counts on DG18 plates as well as for microbial contamination on PCA with Cycloheximide by spread plating 0.1-0.5 ml of suspension onto the agar plates respectively. Before the challenge test is initiated, the suspension inoculated with the mould spores was diluted aseptically with sterile Tryptone Salt 0.1% to the desired level such that the inoculation level in the product would be 2-3 log of colony-forming-units (cfu) of moulds per gram of product.
# (§3) Challenge Test with moulds was according to the following steps: 1) Add 100 g of MOS into a 250 ml sterile Schott bottle with screw-cap cover; 2) Add 0.1 to 2 ml of mould (A. niger/P. nalgiovence/E. amstelodami) inoculum to meet the target inoculum of 10^2-10^3 cfu/g of MOS into the 100 g MOS and shake to mix well; 3) Pour 35 g of the inoculated MOS into a petri dish. Perform this in duplicate; 4) Pipette 1 g of inoculated MOS from the Schott bottle into 9 ml sterile Tryptone Salt 0.1% diluents and vortex. Perform this in duplicate; 5) Plate 0.1-0.5 ml of inoculated Tryptone Salt 0.1% onto DG18 plates at appropriate dilutions by Spread Plate Method. Incubate the agar plates at 25° C. for 5 days to enumerate the initial mould count; 6) Incubate the inoculated MOS in petri dishes at 30° C. for a week. Monitor for mould growth by visual observation after one week. Perform this mould growth monitoring for a period of 4 weeks; 7) The control was prepared by repeating steps 3 to 6 without using any inoculum. The control was plated onto PCA with Cycloheximide plates.
# (§4) The method for producing MAS was the same as for the MOS production in experiment 4. The preparation of the microorganism cultures as well as the challenge tests were identical to the ones described in experiment 4 as well.
# [2] = test system: Penicillium nalgiovense (mould); as to Week 1 (Log cfu/g): key: VG: growth; NVG: no growth; as to Week 2 (Log cfu/g): key: VG: growth; NVG: no growth; as to Week 3 (Log cfu/g): key: VG: growth; NVG: no growth; as to Week 4 (Log cfu/g): key: VG: growth; NVG: no growth
# Protocol: as §1, §2, §3, §4
# [3] = test system: Eurotium amstelodami (mould); as to Week 1 (Log cfu/g): key: VG: growth; NVG: no growth; as to Week 2 (Log cfu/g): key: VG: growth; NVG: no growth; as to Week 3 (Log cfu/g): key: VG: growth; NVG: no growth; as to Week 4 (Log cfu/g): key: VG: growth; NVG: no growth
# Protocol: as §1, §2, §3, §4
# [4] = MAGGI Abalone Sauce, age 0 month
# [5] = MAGGI Abalone Sauce, age 1 month
# [6] = MAGGI Abalone Sauce, age 3 month
# [7] = MAGGI Abalone Sauce, age 6 month
# [8] = MAGGI Abalone Sauce, age 10 month
# [9] = MAGGI Abalone Sauce, age 12 month
# [10] = MAGGI Abalone Sauce, up to 12 months, clove leaf oil 0.06 wt % and 0.15 wt %
# [11] = MAGGI Oyster Sauce, garlic EO 0.06 wt % and 0.12 wt %
# [12] = MAGGI Oyster Sauce, age 0 month
compound,measurement,setting,value
"C/C=C/C=C/C(=O)[O-].[K+] [KS, potassium sorbate]",Week 0 (Log cfu/g),[1]; [4],1.9 Log cfu/g
same,Week 1 (Log cfu/g),[1]; [4],NVG
same,Week 2 (Log cfu/g),[1]; [4],NVG
same,Week 3 (Log cfu/g),[1]; [4],NVG
same,Week 4 (Log cfu/g),[1]; [4],NVG
same,Week 0 (Log cfu/g),[1]; [5],1.15 Log cfu/g
same,Week 1 (Log cfu/g),[1]; [5],NVG
same,Week 2 (Log cfu/g),[1]; [5],NVG
same,Week 3 (Log cfu/g),[1]; [5],NVG
same,Week 4 (Log cfu/g),[1]; [5],NVG
same,Week 0 (Log cfu/g),[1]; [6],2.19 Log cfu/g
same,Week 1 (Log cfu/g),[1]; [6],NVG
same,Week 2 (Log cfu/g),[1]; [6],NVG
same,Week 3 (Log cfu/g),[1]; [6],NVG
same,Week 4 (Log cfu/g),[1]; [6],NVG
same,Week 0 (Log cfu/g),[1]; [7],2.16 Log cfu/g
same,Week 1 (Log cfu/g),[1]; [7],NVG
same,Week 2 (Log cfu/g),[1]; [7],NVG
same,Week 3 (Log cfu/g),[1]; [7],NVG
same,Week 4 (Log cfu/g),[1]; [7],NVG
same,Week 0 (Log cfu/g),[1]; [8],3.67 Log cfu/g
same,Week 1 (Log cfu/g),[1]; [8],NVG
same,Week 2 (Log cfu/g),[1]; [8],NVG
same,Week 3 (Log cfu/g),[1]; [8],NVG
same,Week 4 (Log cfu/g),[1]; [8],NVG
same,Week 0 (Log cfu/g),[1]; [9],2.96 Log cfu/g
same,Week 1 (Log cfu/g),[1]; [9],NVG
same,Week 2 (Log cfu/g),[1]; [9],NVG
same,Week 3 (Log cfu/g),[1]; [9],NVG
same,Week 4 (Log cfu/g),[1]; [9],NVG
same,mould growth,[1]; [10],not detected
same,mould growth,[1]; [11],not detected
same,Week 0 (Log cfu/g),[1]; [12],3.114 Log cfu/g
same,Week 1 (Log cfu/g),[1]; [12],NVG
same,Week 2 (Log cfu/g),[1]; [12],NVG
same,Week 3 (Log cfu/g),[1]; [12],NVG
same,Week 4 (Log cfu/g),[1]; [12],NVG
same,Week 0 (Log cfu/g),[2]; [4],1.54 Log cfu/g
same,Week 1 (Log cfu/g),[2]; [4],NVG
same,Week 2 (Log cfu/g),[2]; [4],NVG
same,Week 3 (Log cfu/g),[2]; [4],NVG
same,Week 4 (Log cfu/g),[2]; [4],NVG
same,Week 0 (Log cfu/g),[2]; [5],1.73 Log cfu/g
same,Week 1 (Log cfu/g),[2]; [5],NVG
same,Week 2 (Log cfu/g),[2]; [5],NVG
same,Week 3 (Log cfu/g),[2]; [5],NVG
same,Week 4 (Log cfu/g),[2]; [5],NVG
same,Week 0 (Log cfu/g),[2]; [6],2.71 Log cfu/g
same,Week 1 (Log cfu/g),[2]; [6],NVG
same,Week 2 (Log cfu/g),[2]; [6],NVG
same,Week 3 (Log cfu/g),[2]; [6],NVG
same,Week 4 (Log cfu/g),[2]; [6],NVG
same,Week 0 (Log cfu/g),[2]; [7],2.03 Log cfu/g
same,Week 1 (Log cfu/g),[2]; [7],NVG
same,Week 2 (Log cfu/g),[2]; [7],NVG
same,Week 3 (Log cfu/g),[2]; [7],NVG
same,Week 4 (Log cfu/g),[2]; [7],NVG
same,Week 0 (Log cfu/g),[2]; [8],3.86 Log cfu/g
same,Week 1 (Log cfu/g),[2]; [8],NVG
same,Week 2 (Log cfu/g),[2]; [8],NVG
same,Week 3 (Log cfu/g),[2]; [8],NVG
same,Week 4 (Log cfu/g),[2]; [8],NVG
same,Week 0 (Log cfu/g),[2]; [9],3.26 Log cfu/g
same,Week 1 (Log cfu/g),[2]; [9],NVG
same,Week 2 (Log cfu/g),[2]; [9],NVG
same,Week 3 (Log cfu/g),[2]; [9],NVG
same,Week 4 (Log cfu/g),[2]; [9],NVG
same,mould growth,[2]; [10],not detected
same,mould growth,[2]; [11],not detected
same,Week 0 (Log cfu/g),[2]; [12],4.079 Log cfu/g
same,Week 1 (Log cfu/g),[2]; [12],NVG
same,Week 2 (Log cfu/g),[2]; [12],NVG
same,Week 3 (Log cfu/g),[2]; [12],NVG
same,Week 4 (Log cfu/g),[2]; [12],NVG
same,Week 0 (Log cfu/g),[3]; [4],2.93 Log cfu/g
same,Week 1 (Log cfu/g),[3]; [4],NVG
same,Week 2 (Log cfu/g),[3]; [4],NVG
same,Week 3 (Log cfu/g),[3]; [4],NVG
same,Week 4 (Log cfu/g),[3]; [4],NVG
same,Week 0 (Log cfu/g),[3]; [5],1.54 Log cfu/g
same,Week 1 (Log cfu/g),[3]; [5],NVG
same,Week 2 (Log cfu/g),[3]; [5],NVG
same,Week 3 (Log cfu/g),[3]; [5],NVG
same,Week 4 (Log cfu/g),[3]; [5],NVG
same,Week 0 (Log cfu/g),[3]; [6],2.69 Log cfu/g
same,Week 1 (Log cfu/g),[3]; [6],NVG
same,Week 2 (Log cfu/g),[3]; [6],NVG
same,Week 3 (Log cfu/g),[3]; [6],NVG
same,Week 4 (Log cfu/g),[3]; [6],NVG
same,Week 0 (Log cfu/g),[3]; [7],2.67 Log cfu/g
same,Week 1 (Log cfu/g),[3]; [7],NVG
same,Week 2 (Log cfu/g),[3]; [7],NVG
same,Week 3 (Log cfu/g),[3]; [7],NVG
same,Week 4 (Log cfu/g),[3]; [7],NVG
same,Week 0 (Log cfu/g),[3]; [8],3.80 Log cfu/g
same,Week 1 (Log cfu/g),[3]; [8],NVG
same,Week 2 (Log cfu/g),[3]; [8],NVG
same,Week 3 (Log cfu/g),[3]; [8],NVG
same,Week 4 (Log cfu/g),[3]; [8],NVG
same,Week 0 (Log cfu/g),[3]; [9],2.38 Log cfu/g
same,Week 1 (Log cfu/g),[3]; [9],NVG
same,Week 2 (Log cfu/g),[3]; [9],NVG
same,Week 3 (Log cfu/g),[3]; [9],NVG
same,Week 4 (Log cfu/g),[3]; [9],NVG
same,mould growth,[3]; [10],not detected
same,mould growth,[3]; [11],not detected
same,Week 0 (Log cfu/g),[3]; [12],2.204 Log cfu/g
same,Week 1 (Log cfu/g),[3]; [12],NVG
same,Week 2 (Log cfu/g),[3]; [12],NVG
same,Week 3 (Log cfu/g),[3]; [12],NVG
same,Week 4 (Log cfu/g),[3]; [12],NVG
